Where a name gives a salt, the structure may show the parent alone.
Tests used:
CCK-A receptor = biological target: T1, CCK-A receptor (Mus musculus, UniProt O08786); experiment: CCK-A receptor antagonism: displacement of [3H]CCK-8 from crude membrane of pancreas; type: binding, mouse (male ddY); conditions: [3H]CCK-8 1 nM, 90 min, 25° C.
T1 construct: crude membrane specimen from mouse pancreas; from tissue; host or cells: pancreas of male ddY mice, crude membranes
T1 sequence (O08786 1-436): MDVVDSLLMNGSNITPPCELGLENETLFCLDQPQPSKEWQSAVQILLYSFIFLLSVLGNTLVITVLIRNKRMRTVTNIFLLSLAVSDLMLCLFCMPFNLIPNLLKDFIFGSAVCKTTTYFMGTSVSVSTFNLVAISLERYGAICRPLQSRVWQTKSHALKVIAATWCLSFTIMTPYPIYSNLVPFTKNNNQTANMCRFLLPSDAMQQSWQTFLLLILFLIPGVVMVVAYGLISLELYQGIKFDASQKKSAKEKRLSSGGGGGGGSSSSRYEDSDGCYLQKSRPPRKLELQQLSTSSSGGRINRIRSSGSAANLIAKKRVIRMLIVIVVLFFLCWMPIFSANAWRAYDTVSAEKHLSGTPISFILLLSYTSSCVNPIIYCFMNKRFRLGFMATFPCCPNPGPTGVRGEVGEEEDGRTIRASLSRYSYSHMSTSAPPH
Procedure: (§1) The pharmacological effect of compounds (I) prepared in Examples above were evaluated in vitro with respect to antagonistic activity against gastrin receptor, CCK-B receptor or CCK-A receptor, using fundic gland cells of guinea pig, crude membrane specimen from mouse cerebral cortex, or crude membrane specimen from mouse pancreas, respectively.
(§2) Male Hartley guinea pig (450-600 g) or male ddY mouse (24-30 g) were used.
(§3) (2) CCK-A Receptor Antagonism and CCK-B Receptor Antagonism Preparation of CCK receptor preparations Male ddY mice (24 to 30 g) were killed by decapitation and cerebral cortex (CCK-B) and pancreas (CCK-A) were extracted immediately. Each of cerebral cortex and pancreas was mixed with 50 mM Tris-HCl buffer (pH 7.4) and homogenized with a teflon-glass homogenizer and polytron homogenizer to obtain crude membrane specimens.
(§4) Preparation of test compounds and procedures of displacing assay
(§5) A 1M solution of a compound to be tested in DMSO is prepared and diluted with 50% DMSO to obtain a ten-fold dilution series.
(§6) The reaction is initiated by the addition of crude membrane specimen to solutions of different concentration each containing [^3 H]CCk-8 (final concentration, 1 nM). The mixture is incubated for 90 min at 25° C., filtered through glass filter with aspiration and washed with a cooled 50 mM Tris buffer. After the addition of Aquazol-2 cocktail the radioactivity is counted. The same procedure was repeated using 50% DMSO solution or Ceruletide (final concentration, 1 μM) instead of a solution of test compound so as to obtain the control value regarding total binding or the value regarding non-specific binding, respectively.
(§7) The IC50 was determined by plotting the ratio (%) of specific binding of a test compound to that of control on semilogarithmic graph and obtaining the concentration corresponding to 50%, wherein: specific binding of control=total binding (cpm)--non-specific binding (cpm); and specific binding of test compound=total binding (cpm)--non-specific binding (cpm).

gastrin receptor = biological target: T2, gastrin receptor (Cavia porcellus, UniProt H0VZC5); experiment: Gastrin receptor antagonism: displacement of 125I-labeled gastrin from gastric glands; type: binding, guinea pig (male Hartley); conditions: guinea pig fundic gastric glands; 125I-gastrin 0.2 nM; 30 min, 25° C.
T2 construct: stomach was extracted from each animal immediately, from which gastric glands were prepared; from tissue; host or cells: gastric (fundic) glands of male Hartley guinea pigs
T2 sequence (H0VZC5 1-426): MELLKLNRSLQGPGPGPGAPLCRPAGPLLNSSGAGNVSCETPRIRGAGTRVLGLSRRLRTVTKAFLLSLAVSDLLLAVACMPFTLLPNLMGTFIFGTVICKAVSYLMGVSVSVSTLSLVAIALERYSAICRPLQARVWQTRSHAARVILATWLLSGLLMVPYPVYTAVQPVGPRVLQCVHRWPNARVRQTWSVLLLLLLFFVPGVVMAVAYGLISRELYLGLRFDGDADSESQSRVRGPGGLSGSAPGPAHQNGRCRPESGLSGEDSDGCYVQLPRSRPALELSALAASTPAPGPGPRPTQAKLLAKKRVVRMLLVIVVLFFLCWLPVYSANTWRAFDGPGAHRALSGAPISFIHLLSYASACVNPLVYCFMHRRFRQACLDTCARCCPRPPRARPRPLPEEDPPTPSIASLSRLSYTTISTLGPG
Procedure: as §1, §2
(1) Gastrin Receptor Antagonism
Preparation of gastric glands
Male Hadley guinea pigs (450-600 g) were killed by bleeding and stomach was extracted from each animal immediately, from which gastric glands were prepared.
Preparation of test compounds and procedures of displacing assay A 1M solution of a compound to be tested in DMSO is prepared and diluted with 50% DMSO to obtain a ten-fold dilution series.
The reaction is initiated by the addition of gastric glands to solutions of different concentration each containing ^125 I-labeled gastrin (final concentration, 0.2 nM). The mixture is incubated for 30 min at 25° C., centrifuged at 2000 rpm for 5 min and the supernatant is removed by aspiration. To the pellet is added ice-cooled incubation buffer and mixed gently, followed by an immediate centrifugation and removal of the supernatant by aspiration. The radioactivity is counted on gamma counter. The same procedure was repeated using 50% DMSO solution or human gastrin I (final concentration, 2 μM) instead of a solution of test compound so as to obtain the control value regarding total binding or the value regarding non-specific binding, respectively.
as §7

CCK-B receptor = biological target: T3, CCK-B receptor (Mus musculus, UniProt P56481); experiment: CCK-B receptor antagonism: displacement of [3H]CCK-8 from crude membrane of cerebral cortex; type: binding, mouse (male ddY); conditions: [3H]CCK-8 1 nM, 90 min, 25° C.
T3 construct: crude membrane specimen from mouse cerebral cortex; from tissue; host or cells: cerebral cortex of male ddY mice, crude membranes
T3 sequence (P56481 1-453): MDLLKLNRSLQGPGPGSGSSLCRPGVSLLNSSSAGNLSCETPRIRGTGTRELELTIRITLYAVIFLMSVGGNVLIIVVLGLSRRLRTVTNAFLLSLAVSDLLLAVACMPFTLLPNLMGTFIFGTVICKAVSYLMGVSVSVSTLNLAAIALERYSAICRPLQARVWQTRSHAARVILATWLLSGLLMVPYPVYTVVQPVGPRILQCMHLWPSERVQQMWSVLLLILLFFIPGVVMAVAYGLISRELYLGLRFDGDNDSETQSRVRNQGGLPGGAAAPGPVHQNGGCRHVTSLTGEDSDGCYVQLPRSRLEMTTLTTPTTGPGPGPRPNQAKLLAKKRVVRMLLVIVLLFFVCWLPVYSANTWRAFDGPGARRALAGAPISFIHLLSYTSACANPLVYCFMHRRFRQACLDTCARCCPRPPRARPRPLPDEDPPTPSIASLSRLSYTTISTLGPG
Procedure: as §1, §2, §3, §4, §5, §6, §7

gastric acid secretion = experiment: Inhibitory effect on pentagastrin-stimulated gastric acid secretion in anesthetized rat (perfused stomach, Schild method); type: in vivo, rat (Sprague Dawley); conditions: intraduodenal (i.d.), 0.5% M.C. suspension
Source text: Anti-acid secreting function of carbamoylmethylurea derivative (I) of the present invention has been confirmed by the in vivo experiment (cf. Schild Method; Experiment 1 below). […] From the results of these experiments, it is apparent that the carbamoylmethylurea derivative (I) has an anti-acid secreting function, and is an excellent gastrin receptor antagonist and/or CCK-B receptor antagonist which has enough functional separativeness from CCK-A receptor.
Experiment 1 In Vivo Test
Evaluation of Inhibitory Effect on Gastric Acid Secretion by Child Method
Twenty four hour starved (ad libitum for water) male Sprague Daily rats (8-week-old) were anesthetized with urethane (1.5 g/kg S.C.) and kept breathing with esophagus cannulas. After laparotomy, esophagus cannulas were inserted orally up to proventriculus and ligated around gastric cardiac. Perfusion cannulas were inserted from duodenum into stomach and ligated around pylorus. Another cannulas were placed into duodenum and ligated for administration of drug. After sutra of abdomen, stomach was perfused via the esophagus cannulas with physiological saline (37° C.) while collecting perfusate for a 15 min interval. The perfusate was subjected to titration with 0.001N NaOH solution to determine the acidity. When the basal acid secretion became stable, pentagastrin ([…])was administered in a sustained manner via common carotid vein for about 90 min until the acid secretion reached approximately the highest level, when a test compound (0.5% M.C. suspension) was administered into duodenum through cannulas. The perfusate was collected for a 15 min interval to monitor the acid secretion for 90 min. The percent inhibition was calculated as follows:
Percent inhibition (%)=100×(A-B)/(C-B)
A: the minimum value of total acidity observed after the administration of a test compound;
B: the total acidity obtained immediately before the administration of pentagastrin; and
C: the total acidity obtained immediately before the administration of a test compound.

SMILES | IC50 (CCK-A receptor) [nM] | IC50 (gastrin receptor) [nM] | IC50 (CCK-B receptor) [nM] | Inhibitory Effect on acid secretion in rat ED50, i.d. (gastric acid secretion) [mg/kg] | Inhibitory Effect on acid secretion in rat ED50, i.d. (gastric acid secretion; sodium salt) [mg/kg] | Inhibitory Effect on acid secretion in rat ED50, i.d. (gastric acid secretion; calcium salt) [mg/kg] | ED50 (gastric acid secretion; Rattus norvegicus) [mg/kg]
CC(C)(C)OC(=O)CN(C(=O)CNC(=O)Nc1cccc(-c2nnn(C(c3ccccc3)(c3ccccc3)c3ccccc3)n2)c1)c1ccccc1C(=O)c1ccccc1 [Compound 7f, 2-(N-(tert-Butoxycarbonylmethyl)-N'-(m-(2-(triphenylmethyl)tetrazol-5-yl)phenyl)ureidomethylcarbonylamino)benzophenone] | 1650 | 1 | 8 | – | – | – | –
CC(C)(C)OC(=O)CN(C(=O)CNC(=O)Nc1ccc(Cl)cc1)c1ccccc1C(=O)c1ccccc1 [Compound 7y, 2-(N-(tert-Butoxycarbonylmethyl)-N'-(p-chlorophenyl)ureidomethylcarbonylamino)benzophenone] | 1800 | 42 | 190 | – | – | – | –
Cc1ccc(NC(=O)NCC(=O)N(CC(=O)OC(C)(C)C)c2ccccc2C(=O)c2ccccc2)cc1 [Compound 7z, 2-(N-(tert-Butoxycarbonylmethyl)-N'-(p-tolyl)ureidomethylcarbonylamino)benzophenone] | 1900 | 6 | 66 | – | – | – | –
CC(C)(C)OC(=O)CN(C(=O)CNC(=O)Nc1cccc(C(=O)O)c1)c1ccccc1C(=O)c1ccccc1 [Compound 8h] | 5000 | 4 | 64 | 0.014 | – | – | –
CC(C)(C)OC(=O)CN(C(=O)CNC(=O)Nc1cccc(C(=O)O)c1)c1ccccc1C(=O)c1ccccc1 [Compound 8ha, 2-[(tert-Butoxycarbonylmethyl)-[3-(m-(carboxylphenyl)ureidomethylcarbonyl]]aminobenzophenone sodium salt] | 3400 | 2 | 42 | – | 0.003 | – | –
CC(C)(C)OC(=O)CN(C(=O)CNC(=O)Nc1cccc(C(=O)O)c1)c1ccccc1C(=O)c1ccccc1 [Compound 8hb, 2-[(tert-Butoxycarbonylmethyl)-[3-(m-(carboxyphenyl)ureidomethylcarbonyl]]aminobenzophenone calcium salt] | – | 3 | 54 | – | – | 0.007 | –
CC(C)(C)OC(=O)CN(C(=O)CNC(=O)Nc1cccc(CC(=O)O)c1)c1ccccc1C(=O)c1ccccc1 [Compound 8i, 2-(N-(tert-Butoxycarbonylmethyl)-N'-(m-(carboxymethyl)phenyl)ureidomethylcarbonylamino)benzophenone] | 1700 | 2 | 3 | – | – | – | –
CC(C)(C)OC(=O)CN(C(=O)CNC(=O)Nc1cccc(OCC(=O)O)c1)c1ccccc1C(=O)c1ccccc1 [Compound 8j, 2-(N-(tert-Butoxycarbonylmethyl)-N'-(m-(carboxymethyloxy)phenyl)ureidomethylcarbonylamino)benzophenone] | 2200 | 3 | 8 | – | – | – | –
COC(=O)c1cccc(NC(=O)NCC(=O)N(CC(=O)OC(C)(C)C)c2ccccc2C(=O)c2ccccc2)c1 [Compound 9l, 2-(N-(tert-Butoxycarbonylmethyl)-N'-(m-(carbomethoxy)phenyl)ureidomethylcarbonylamino)benzophenone] | 1350 | 7 | 56 | – | – | – | 0.04
COC(=O)Cc1cccc(NC(=O)NCC(=O)N(CC(=O)OC(C)(C)C)c2ccccc2C(=O)c2ccccc2)c1 [Compound 9m] | 1350 | 2 | 11 | – | – | – | –
CC(C)(C)OC(=O)CN(C(=O)CNC(=O)Nc1cccc(C(=O)O)c1)c1ccccc1C(=O)C1CCCCC1 [Compound 15d, Cyclohexyl-(2-(N-(t-butoxycarbonylmethyl)-N-(N'-(m-carboxyphenyl)ureidomethylcarbonyl)amino)phenyl)ketone] | 2000 | 3 | 6 | – | – | – | –
C=CCOC(=O)c1cccc(NC(=O)NCC(=O)N(CC(=O)NC(C)(C)C)c2ccccc2C(=O)c2ccccc2)c1 [Compound 16a, 2-(N-(tert-Butylcarbamoylmethyl)-N'-(m-(aryloxycarbamoyl)phenyl)ureidomethylcarbonylamino)benzophenone] | 4400 | 25 | 215 | – | – | – | –
CC(C)(C)NC(=O)CN(C(=O)CNC(=O)Nc1cccc(C(=O)O)c1)c1ccccc1C(=O)c1ccccc1 [Compound 16b, 2-(N-(tert-Butylcarbamoylmethyl)-N'-(m-carboxyphenyl)ureidomethylcarbonylamino)benzophenone] | > 10000 | 6 | 210 | – | – | – | –
